Reference: patent US7777077B2, “Dual-acting antihypertensive agents” (Theravance, Inc., priority 2007, dated 2010)

How the values were obtained:
[1] = target: NEP enzyme (UniProt P08473); assay: In vitro NEP enzyme inhibition assay; type: biochemical; conditions: fluorogenic peptide substrate; human or rat NEP not given
Protocol: The inhibitory activities of compounds at human and rat NEP and human ACE were determined using in vitro assays as described below.
Rat NEP was prepared from the kidneys of adult Sprague Dawley rats. Whole kidneys were washed in cold PBS and brought up in ice-cold lysis buffer (1% Triton X-114, 150 mM NaCl, 50 mM Tris pH 7.5; Bordier (1981) J. Biol. Chem. 256:1604-1607) in a ratio of 5 mL of buffer for every gram of kidney. Samples were homogenized using a polytron hand held tissue grinder on ice. Homogenates were centrifuged at 1000×g in a swinging bucket rotor for 5 minutes at 3° C. The pellet was resuspended in 20 mL of ice cold lysis buffer and incubated on ice for 30 minutes. […] Protein concentrations were quantitated using a BCA detection system with BSA as a standard. […]
The assays were performed in 384-well white opaque plates at room temperature using the respective fluorogenic peptides at a concentration of 10 μM in assay buffer (50 mM Tris/HCl at 25° C., 100 mM NaCl, 0.01% Tween-20, 1 μM Zn, 0.025% BSA). […] The rat NEP enzyme preparation was used at a concentration that yielded quantitative proteolysis of 3 μM of Mca-RRL within 20 minutes at room temperature.
Assays were started by adding 25 μL of enzyme to 12.5 μL of test compound at 12 concentrations ([…]). […] Plates were read on a fluorometer with excitation and emission wavelengths set to 320 nm and 405 nm, respectively. […]

[2] = target: T1, human AT1 receptor (Homo sapiens, UniProt P30556); assay: AT1 radioligand binding assay; conditions: [Eu]AngII displacement, membranes of CHO-K1 cells expressing human AT1; read-out: pKi at the AT1 receptor (converted)
T1 construct: expressed in transfected cells; membranes
T1 sequence (P30556 1-359): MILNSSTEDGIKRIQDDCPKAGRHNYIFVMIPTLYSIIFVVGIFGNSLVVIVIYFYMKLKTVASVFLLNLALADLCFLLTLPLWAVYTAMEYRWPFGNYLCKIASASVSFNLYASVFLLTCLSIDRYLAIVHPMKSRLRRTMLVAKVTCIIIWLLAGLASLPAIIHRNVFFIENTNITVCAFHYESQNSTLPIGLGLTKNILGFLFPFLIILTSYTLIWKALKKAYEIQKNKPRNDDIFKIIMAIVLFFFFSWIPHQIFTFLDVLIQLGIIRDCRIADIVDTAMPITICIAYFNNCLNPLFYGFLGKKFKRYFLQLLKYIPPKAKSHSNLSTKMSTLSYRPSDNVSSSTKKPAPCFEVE
Protocol: These in vitro assays were used to assess the ability of test compounds to bind to the AT1 and the AT2 receptors.
Chinese hamster ovary (CHO-K1) derived cell lines stably expressing the cloned human AT1 or AT2 receptors, respectively, were grown in HAM's-F12 medium supplemented with 10% fetal bovine serum, 10 μg/ml penicillin/streptomycin, and 500 μg/ml geneticin in a 5% CO2 humidified incubator at 37° C. AT2 receptor expressing cells were grown in the additional presence of 100 nM PD123,319 (AT2 antagonist). When cultures reached 80-95% confluence, the cells were washed thoroughly in PBS and lifted with 5 mM EDTA. Cells were pelleted by centrifugation and snap frozen in MeOH-dry ice and stored at −80° C. until further use.
For membrane preparation, cell pellets were resuspended in lysis buffer (25 mM Tris/HCl pH 7.5 at 4° C., 1 mM EDTA, and one tablet of Complete Protease Inhibitor Cocktail Tablets with 2 mM EDTA per 50 mL buffer (Roche cat.#1697498, Roche Molecular Biochemicals, Indianapolis, Ind.)) and homogenized using a tight-fitting Dounce glass homogenizer (10 strokes) on ice. The homogenate was centrifuged at 1000×g, the supernatant was collected and centrifuged at 20,000×g. […] Protein concentration of the membrane suspension was determined by the method described in Bradford (1976) Anal Biochem. 72:248-54. […]

pIC50 for the NEP enzyme [1]: greater than or equal to 7.0
Ki [2]: < 100 nM
SMILES: CCCC(=O)N(CCNC(=O)C(CS)CC(C)C)Cc1ccc(-c2ccccc2-c2nnn[nH]2)cc1 (centres unmarked) [Example 1, 2-Mercaptomethyl-4-methylpentanoic Acid (2-Butyryl-[2′-(1H-tetrazol-5-yl)biphenyl-4-ylmethyl]aminoethyl)amide]
